Laboratory results: EP3722296B1, “DIHYDRONAPHTHYRIDINES AND RELATED COMPOUNDS USEFUL AS KINASE INHIBITORS FOR THE TREATMENT OF PROLIFERATIVE DISEASES” (Deciphera Pharmaceuticals, LLC, priority 2012, dated 2013)

How the values were obtained:
c-KIT VVDV kinase = target: T1, c-KIT VVDV kinase (Homo sapiens, UniProt P10721, D816V/DEL559-560); assay: cKIT-VVDV kinase Assay; type: biochemical; conditions: enzymatic assay; V559+V560 deletions and D816V mutation
T1 construct: This construct contains residues T544-V976 of cKit; GST (N); TEV cleavage site (internal); purchased deCODE Biostructures
Method: In this assay, the oxidation of NADH (measured by decrease in absorbance at 340 nm) was continuously monitored spectrophotometrically. […] The inhibition reaction was started by mixing serial diluted test compound with the above reaction mixture. The absorption at 340 nm was monitored continuously for 5 hours at 30 °C on Synergy 2 plate reader (BioTech). […] The protein construct was prepared by deCODE Biostructures using procedures known in the art. […] This construct is identical to Seq ID no.

Phospho-KIT (Tyr719) = target: T2, Phospho-KIT (Tyr719) (Homo sapiens, UniProt P10721, DEL560-578); assay: GIST T1 KIT Western Blot; type: cell-based; conditions: GIST T1 cells, 4 hours, serum-free medium; read-out: pKIT suppression by western blot analysi GIST T1
T2 construct: endogenous in cells; host or cells: GIST T1
Method: GIST48, GIST430, and GIST882 cells were obtained from J. Fletcher (Brigham and Women's Hospital, Boston, MA). GIST T1 cells were obtained from B. Rubin (Cleveland Clinic, Cleveland, OH) and Professor Takahiro Taguchi (Kochi Medical School, Nankoku, Kochi, Japan). […] GIST430 cells were grown in Ham's F10 medium supplemented with 15% characterized fetal bovine serum (Invitrogen, Carlsbad, CA), 30 mg/L bovine pituitary extract (BD Biosciences, San Jose, CA), 0.5% Mito+ serum extender (BD Biosciences, San Jose, CA), 1 unit/mL penicillin G, 1 µg/ml streptomycin, and 0.29 mg/mL L-glutamine at 37 °C, 5%CO2, 95% humidity. GIST T1 cells were grown in DMEM medium supplemented with 10% characterized fetal bovine serum (Invitrogen, Carlsbad, CA), 1 unit/mL penicillin G, 1 µg/ml streptomycin, and 0.29 mg/mL L-glutamine at 37 °C, 5% CO2, and 95% humidity. Cells were allowed to expand until reaching 70-95% confluence at which point they were subcultured or harvested for assay use.
One hundred twenty-five thousand cells were added per well in a 24-well tissue-culture treated plate. Cells were then incubated overnight at 37°C, 5% CO2, 95% humidity. Medium was aspirated, cells were washed with PBS, and serum-free DMEM medium was added. A serial dilution of test compound was added to plates containing cells and plates were incubated for 4 hours at 37°C, 5% CO2, 95% humidity. Cells were washed with PBS, then lysed. Cell lysates were separated by SDS-PAGE and transferred to PVDF. Phospho-KIT (Tyr719) was detected using an antibody from Cell Signaling Technology (Beverly, MA), ECL Plus detection reagent (GE Healthcare, Piscataway, NJ) and a Molecular Devices Storm 840 phosphorimager in fluorescence mode. Blots were stripped and probed for total KIT using an antibody from Santa Cruz Biotech (Santa Cruz, CA). IC50 values were calculated using Prism software (Graphpad, San Diego, CA).

GIST430 cells = assay: GIST 430 Cell Proliferation Assay; type: cell-based; conditions: Homo sapiens, 120 h, 115 hours + 5 hours resazurin
Method: GIST48, GIST430, and GIST882 cells were obtained from J. Fletcher (Brigham and Women's Hospital, Boston, MA). GIST T1 cells were obtained from B. Rubin (Cleveland Clinic, Cleveland, OH) and Professor Takahiro Taguchi (Kochi Medical School, Nankoku, Kochi, Japan). Briefly, GIST48 and GIST 882 cells were grown in RPMI 1640 medium supplemented with 15% characterized fetal bovine serum (Invitrogen, Carlsbad, CA), 1 unit/mL penicillin G, 1 µg/ml streptomycin, and 0.29 mg/mL L-glutamine at 37 °C, 5% CO2, and 95% humidity. GIST430 cells were grown in Ham's F10 medium supplemented with 15% characterized fetal bovine serum (Invitrogen, Carlsbad, CA), 30 mg/L bovine pituitary extract (BD Biosciences, San Jose, CA), 0.5% Mito+ serum extender (BD Biosciences, San Jose, CA), 1 unit/mL penicillin G, 1 µg/ml streptomycin, and 0.29 mg/mL L-glutamine at 37 °C, 5%CO2, 95% humidity. GIST T1 cells were grown in DMEM medium supplemented with 10% characterized fetal bovine serum (Invitrogen, Carlsbad, CA), 1 unit/mL penicillin G, 1 µg/ml streptomycin, and 0.29 mg/mL L-glutamine at 37 °C, 5% CO2, and 95% humidity.
A serial dilution of test compound was dispensed into a 384-well black clear bottom plate (Corning, Corning, NY). Two thousand five-hundred cells were added per well in 50 µL complete growth medium. Plates were incubated for 115 hours at 37°C, 5% CO2, 95% humidity. At the end of the incubation period 10 µL of a 440 µM solution of resazurin (Sigma, St. Louis, MO) in PBS was added to each well and incubated for an additional 5 hours at 37°C, 5% CO2, 95% humidity. Plates were read on a Synergy2 reader (Biotek, Winooski, VT) using an excitation of 540 nm and an emission of 600 nm.

T2 sequence (P10721 with tags, fused parts or gaps DEL560-578): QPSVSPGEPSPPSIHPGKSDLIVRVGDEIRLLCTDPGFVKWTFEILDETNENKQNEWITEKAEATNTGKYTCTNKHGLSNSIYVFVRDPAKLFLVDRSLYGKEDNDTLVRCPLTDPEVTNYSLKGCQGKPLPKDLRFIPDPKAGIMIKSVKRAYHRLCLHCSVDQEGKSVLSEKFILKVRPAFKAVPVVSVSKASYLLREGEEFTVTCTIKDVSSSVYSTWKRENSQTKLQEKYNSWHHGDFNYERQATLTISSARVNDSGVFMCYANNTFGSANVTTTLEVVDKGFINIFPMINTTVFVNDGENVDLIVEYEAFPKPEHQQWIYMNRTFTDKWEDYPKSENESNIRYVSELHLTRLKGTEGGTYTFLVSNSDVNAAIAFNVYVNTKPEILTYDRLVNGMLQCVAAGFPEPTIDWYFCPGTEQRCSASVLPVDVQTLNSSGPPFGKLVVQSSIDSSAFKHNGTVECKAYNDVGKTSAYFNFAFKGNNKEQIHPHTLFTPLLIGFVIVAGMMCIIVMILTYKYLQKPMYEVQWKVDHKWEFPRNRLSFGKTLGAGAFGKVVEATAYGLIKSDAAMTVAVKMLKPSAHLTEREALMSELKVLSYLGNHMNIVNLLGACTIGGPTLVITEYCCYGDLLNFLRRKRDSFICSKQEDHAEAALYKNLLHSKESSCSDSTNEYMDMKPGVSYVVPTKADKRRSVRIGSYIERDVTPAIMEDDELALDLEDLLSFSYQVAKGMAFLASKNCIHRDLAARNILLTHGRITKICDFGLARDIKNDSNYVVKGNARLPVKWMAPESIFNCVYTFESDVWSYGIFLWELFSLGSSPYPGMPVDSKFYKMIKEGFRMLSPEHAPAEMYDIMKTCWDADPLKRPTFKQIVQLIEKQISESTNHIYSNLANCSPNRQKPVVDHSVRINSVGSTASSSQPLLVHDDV
T1 sequence (P10721 with tags, fused parts or gaps DEL559-560/D816V): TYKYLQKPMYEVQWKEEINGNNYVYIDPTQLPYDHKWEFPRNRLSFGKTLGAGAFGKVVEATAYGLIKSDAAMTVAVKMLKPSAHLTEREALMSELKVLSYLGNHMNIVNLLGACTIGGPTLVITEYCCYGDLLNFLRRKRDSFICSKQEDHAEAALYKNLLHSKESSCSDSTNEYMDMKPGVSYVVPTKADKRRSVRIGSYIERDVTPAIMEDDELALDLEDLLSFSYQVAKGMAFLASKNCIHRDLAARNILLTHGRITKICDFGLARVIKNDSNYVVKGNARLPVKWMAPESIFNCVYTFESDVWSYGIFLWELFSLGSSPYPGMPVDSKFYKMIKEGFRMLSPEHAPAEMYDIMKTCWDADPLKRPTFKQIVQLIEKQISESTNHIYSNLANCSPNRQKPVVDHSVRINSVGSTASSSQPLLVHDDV

Structure (SMILES) | IC50 (c-KIT VVDV kinase) [nM] | IC50 (Phospho-KIT (Tyr719)) [nM] | IC50 (GIST430 cells) [nM]
CCn1c(=O)c(-c2cc(NC(=O)Nc3ccccc3F)c(F)cc2Cl)cc2cnc(NC)cc21 [Example 25, 1-[4-chloro-5-(1-ethyl-7-methylamino-2-oxo-1,2-dihydro-[1,6]naphthyridin-3-yl)-2-fluoro-phenyl]-3-(2-fluoro-phenyl)-urea] | < 10 |  | 
CCn1c(=O)c(-c2cc(NC(=O)Nc3csc4ccccc34)c(F)cc2Cl)cc2cnc(NC)cc21 [Example 32, 1-(benzo[b]thiophen-3-yl)-3-(4-chloro-5-(1-ethyl-7-(methylamino)-2-oxo-1,2-dihydro-1,6-naphthyridin-3-yl)-2-fluorophenyl)urea] | < 10 | < 10 | 10 to 100
CCn1c(=O)c(-c2cc(NC(=O)Nc3cccc(F)c3)c(F)cc2C)cc2cnc(NC)cc21 [Example 44, 1-(5-(1-ethyl-7-(methylamino)-2-oxo-1,2-dihydro-1,6-naphthyridin-3-yl)-2-fluoro-4-methylphenyl)-3-(3-fluorophenyl)urea] | 10 to 100 | < 10 | 10 to 100
CCn1c(=O)c(-c2cc(NC(=O)Nc3ccccc3)c(F)cc2Cl)cc2cnc(NC)cc21 [Example 3, 1-(4-chloro-5-(1-ethyl-7-(methylamino)-2-oxo-1,2-dihydro-1,6-naphthyridin-3-yl)-2-fluorophenyl)-3-phenylurea] | < 10 | < 10 | 10 to 100
CCn1c(=O)c(-c2cc(NC(=O)Nc3ccccc3)c(F)cc2Br)cc2cnc(NCCOC)cc21 [Example 51, 1-(4-bromo-5-(1-ethyl-7-(2-methoxyethylamino)-2-oxo-1,2-dihydro-1,6-naphthyridin-3-yl)-2-fluorophenyl)-3-phenylurea] | 100 to 1000 |  | 
CCn1c(=O)c(-c2cc(NC(=O)Nc3ccccc3)c(F)cc2Cl)cc2cnc(NCCOC)cc21 [Example 27, 1-(4-chloro-5-(1-ethyl-7-(2-methoxyethylamino)-2-oxo-1,2-dihydro-1,6-naphthyridin-3-yl)-2-fluorophenyl)-3-phenylurea] | 10 to 100 |  | 100 to 1000
CCn1c(=O)c(-c2cc(NC(=O)Nc3cc(F)ccc3F)c(F)cc2C)cc2cnc(NC)cc21 [Example 61, 1-(2,5-difluorophenyl)-3-(5-(1-ethyl-7-(methylamino)-2-oxo-1,2-dihydro-1,6-naphthyridin-3-yl)-2-fluoro-4-methylphenyl)urea] | < 10 |  | 
CCn1c(=O)c(-c2cc(NC(=O)Nc3cc(F)cc(F)c3)c(F)cc2Cl)cc2cnc(NC)cc21 [Example 55, 1-(4-chloro-5-(1-ethyl-7-(methylamino)-2-oxo-1,2-dihydro-1,6-naphthyridin-3-yl)-2-fluorophenyl)-3-(3,5-difluorophenyl)urea] | 10 to 100 |  | 
CCn1c(=O)c(-c2cc(NC(=O)Nc3cccc(F)c3)c(F)cc2Cl)cc2cnc(N)cc21 [Example 20, 1-(5-(7-amino-1-ethyl-2-oxo-1,2-dihydro-1,6-naphthyridin-3-yl)-4-chloro-2-fluorophenyl)-3-(3-fluorophenyl)urea] | < 10 | < 10 | 
CCn1c(=O)c(-c2cc(NC(=O)Nc3ccccc3)c(F)cc2Cl)cc2cnc(NC(=O)OC)cc21 [Example 73, methyl (3-(2-chloro-4-fluoro-5-(3-phenylureido)phenyl)-1-ethyl-2-oxo-1,2-dihydro-1,6-naphthyridin-7-yl)carbamate] | < 10 |  | 
CCn1c(=O)c(-c2cc(NC(=O)Nc3cccc(F)c3F)c(F)cc2Cl)cc2cnc(NC)cc21 [Example 4, 1-(4-chloro-5-(1-ethyl-7-(methylamino)-2-oxo-1,2-dihydro-1,6-naphthyridin-3-yl)-2-fluorophenyl)-3-(2,3-difluorophenyl)urea] | < 10 |  | 

The next lines start with results.

IC50 (c-KIT VVDV kinase) [nM] | IC50 (Phospho-KIT (Tyr719)) [nM] | Structure (SMILES) | IC50 (GIST430 cells) [nM]
100 to 1000 | < 10 | CCn1c(=O)c(-c2cc(NC(=O)Nc3cccc(F)c3)c(F)cc2Br)cc2cnc(NC)cc21 [Example 50, 1-(4-bromo-5-(1-ethyl-7-(methylamino)-2-oxo-1,2-dihydro-1,6-naphthyridin-3-yl)-2-fluorophenyl)-3-(3-fluorophenyl)urea] | 
10 to 100 |  | CCn1c(=O)c(-c2cc(NC(=O)Nc3cc(F)cc(F)c3)c(F)cc2C)cc2cnc(NC)cc21 [Example 60, 1-(3,5-difluorophenyl)-3-(5-(1-ethyl-7-(methylamino)-2-oxo-1,2-dihydro-1,6-naphthyridin-3-yl)-2-fluoro-4-methylphenyl)urea] | 
< 10 | 10 to 100 | CCn1c(=O)c(-c2cc(NC(=O)Nc3cccc4ccccc34)c(F)cc2Cl)cc2cnc(NC)cc21 [Example 6, 1-(4-chloro-5-(1-ethyl-7-(methylamino)-2-oxo-1,2-dihydro-1,6-naphthyridin-3-yl)-2-fluorophenyl)-3-(naphthalen-1-yl)urea] | 
10 to 100 | < 10 | CCn1c(=O)c(-c2cc(NC(=O)Nc3cccc(F)c3)c(F)cc2Cl)cc2cnc(NCCOC)cc21 [Example 28, 1-(4-chloro-5-(1-ethyl-7-(2-methoxyethylamino)-2-oxo-1,2-dihydro-1,6-naphthyridin-3-yl)-2-fluorophenyl)-3-(3-fluorophenyl)urea] | 
< 10 | < 10 | CCn1c(=O)c(-c2cc(NC(=O)Nc3ccccc3)c(F)cc2Cl)cc2cnc(NC(C)=O)cc21 [Example 54, 1-(5-(7-acetamido-1-ethyl-2-oxo-1,2-dihydro-1,6-naphthyridin-3-yl)-4-chloro-2-fluorophenyl)-3-phenylurea] | 
 | < 10 | CCn1c(=O)c(-c2cc(NC(=O)Nc3ccccc3)c(F)cc2Br)cc2cnc(N)cc21 [Example 57, 1-(5-(7-amino-1-ethyl-2-oxo-1,2-dihydro-1,6-naphthyridin-3-yl)-4-bromo-2-fluorophenyl)-3-phenylurea] | 
< 10 | < 10 | CNc1cc2c(cn1)cc(-c1cc(NC(=O)Nc3ccccc3)c(F)cc1Cl)c(=O)n2C(C)C [Example 22, 1-(4-chloro-2-fluoro-5-(1-isopropyl-7-(methylamino)-2-oxo-1,2-dihydro-1,6-naphthyridin-3-yl)phenyl)-3-phenylurea] | 
< 10 | < 10 | CCn1c(=O)c(-c2cc(NC(=O)Nc3ccccc3)c(F)cc2Cl)cc2cnc(NC(=O)N(C)C)cc21 [Example 70, 3-(3-(2-chloro-4-fluoro-5-(3-phenylureido)phenyl)-1-ethyl-2-oxo-1,2-dihydro-1,6-naphthyridin-7-yl)-1,1-dimethylurea] | 
< 10 | < 10 | CCn1c(=O)c(-c2cc(NC(=O)Nc3cccc(F)c3)c(F)cc2Cl)cc2cnc(NC)cc21 [Example 24, 1-[4-chloro-5-(1-ethyl-7-methylamino-2-oxo-1,2-dihydro-[1,6]naphthyridin-3-yl)-2-fluoro-phenyl]-3-(3-fluoro-phenyl)-urea] | 
